Reference: ChEMBL document CHEMBL1201862, “PubChem BioAssay data set” (2004)
Values belong to the molecule of their own block, whether it stands above or below them. Activity calls are given as the source filed them. For most assays here, no stated cut-off is given here; in the data, actives have a measured IC50 and inactives only a lower limit.

How the values were obtained:
[1] = target: T1, Voltage-gated N-type calcium channel alpha-1B subunit/Amyloid beta A4 precursor protein-binding family A member 1 (Homo sapiens, UniProt Q00975+Q02410); format: protein assay
T1 sequence (Q00975 whole entry): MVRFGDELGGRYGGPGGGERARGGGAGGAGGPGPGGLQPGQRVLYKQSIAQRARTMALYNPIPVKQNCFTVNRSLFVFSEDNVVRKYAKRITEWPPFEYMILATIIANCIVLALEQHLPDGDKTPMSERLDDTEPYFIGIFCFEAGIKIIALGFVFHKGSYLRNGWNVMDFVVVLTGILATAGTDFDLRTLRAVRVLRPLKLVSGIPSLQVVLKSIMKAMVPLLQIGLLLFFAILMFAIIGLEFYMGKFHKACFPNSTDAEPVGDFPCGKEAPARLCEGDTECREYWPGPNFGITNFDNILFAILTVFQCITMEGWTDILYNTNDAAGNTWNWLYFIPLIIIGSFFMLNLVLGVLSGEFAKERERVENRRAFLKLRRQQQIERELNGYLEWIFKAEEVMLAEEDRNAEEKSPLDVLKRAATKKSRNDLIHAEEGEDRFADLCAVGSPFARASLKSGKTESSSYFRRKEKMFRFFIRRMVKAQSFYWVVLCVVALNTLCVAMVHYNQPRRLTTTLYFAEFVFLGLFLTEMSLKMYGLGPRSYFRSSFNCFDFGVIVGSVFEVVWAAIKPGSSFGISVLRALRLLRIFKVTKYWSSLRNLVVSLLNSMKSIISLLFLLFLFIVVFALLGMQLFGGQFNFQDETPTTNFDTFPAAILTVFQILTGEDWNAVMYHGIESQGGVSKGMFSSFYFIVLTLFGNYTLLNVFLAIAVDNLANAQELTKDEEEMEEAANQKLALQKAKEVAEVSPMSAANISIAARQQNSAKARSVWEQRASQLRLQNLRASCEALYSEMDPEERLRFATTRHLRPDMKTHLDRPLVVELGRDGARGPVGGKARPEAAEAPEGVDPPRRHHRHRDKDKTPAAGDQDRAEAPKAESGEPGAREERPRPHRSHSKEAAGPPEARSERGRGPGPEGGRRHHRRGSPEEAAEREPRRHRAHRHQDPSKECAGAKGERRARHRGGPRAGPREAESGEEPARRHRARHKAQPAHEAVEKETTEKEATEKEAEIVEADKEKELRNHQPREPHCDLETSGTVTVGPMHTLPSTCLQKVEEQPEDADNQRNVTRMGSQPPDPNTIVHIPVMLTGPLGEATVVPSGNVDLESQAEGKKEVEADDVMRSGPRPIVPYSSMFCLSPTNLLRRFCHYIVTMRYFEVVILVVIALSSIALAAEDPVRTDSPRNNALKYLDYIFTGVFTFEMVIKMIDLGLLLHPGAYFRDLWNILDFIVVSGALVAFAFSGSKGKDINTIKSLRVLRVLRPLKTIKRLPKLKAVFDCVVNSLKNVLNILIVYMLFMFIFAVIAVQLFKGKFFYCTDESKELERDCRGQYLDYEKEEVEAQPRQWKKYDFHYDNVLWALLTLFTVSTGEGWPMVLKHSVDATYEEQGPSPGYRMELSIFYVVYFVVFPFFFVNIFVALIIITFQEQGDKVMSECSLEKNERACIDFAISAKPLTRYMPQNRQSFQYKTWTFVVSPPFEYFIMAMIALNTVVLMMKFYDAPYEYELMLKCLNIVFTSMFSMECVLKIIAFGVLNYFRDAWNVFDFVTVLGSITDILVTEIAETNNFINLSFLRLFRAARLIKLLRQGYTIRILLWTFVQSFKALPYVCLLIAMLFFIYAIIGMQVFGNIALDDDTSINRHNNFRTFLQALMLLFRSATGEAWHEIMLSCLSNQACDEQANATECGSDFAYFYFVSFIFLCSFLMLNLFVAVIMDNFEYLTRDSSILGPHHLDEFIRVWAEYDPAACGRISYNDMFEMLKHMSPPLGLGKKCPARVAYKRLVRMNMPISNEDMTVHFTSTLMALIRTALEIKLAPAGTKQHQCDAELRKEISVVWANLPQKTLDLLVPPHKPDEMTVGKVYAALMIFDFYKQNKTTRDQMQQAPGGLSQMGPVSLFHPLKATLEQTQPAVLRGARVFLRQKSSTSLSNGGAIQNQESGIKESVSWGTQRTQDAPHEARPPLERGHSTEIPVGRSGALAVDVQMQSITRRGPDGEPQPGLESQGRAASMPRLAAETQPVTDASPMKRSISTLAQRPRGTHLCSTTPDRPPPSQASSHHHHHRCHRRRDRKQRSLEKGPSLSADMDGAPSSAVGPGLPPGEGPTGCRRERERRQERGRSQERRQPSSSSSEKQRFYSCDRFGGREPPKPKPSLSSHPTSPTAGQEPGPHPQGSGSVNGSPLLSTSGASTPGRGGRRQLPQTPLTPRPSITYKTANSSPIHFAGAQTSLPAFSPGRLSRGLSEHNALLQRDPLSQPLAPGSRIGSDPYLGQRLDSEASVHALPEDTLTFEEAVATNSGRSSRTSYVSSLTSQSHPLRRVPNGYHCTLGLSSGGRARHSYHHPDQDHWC
T1 sequence (Q02410 whole entry): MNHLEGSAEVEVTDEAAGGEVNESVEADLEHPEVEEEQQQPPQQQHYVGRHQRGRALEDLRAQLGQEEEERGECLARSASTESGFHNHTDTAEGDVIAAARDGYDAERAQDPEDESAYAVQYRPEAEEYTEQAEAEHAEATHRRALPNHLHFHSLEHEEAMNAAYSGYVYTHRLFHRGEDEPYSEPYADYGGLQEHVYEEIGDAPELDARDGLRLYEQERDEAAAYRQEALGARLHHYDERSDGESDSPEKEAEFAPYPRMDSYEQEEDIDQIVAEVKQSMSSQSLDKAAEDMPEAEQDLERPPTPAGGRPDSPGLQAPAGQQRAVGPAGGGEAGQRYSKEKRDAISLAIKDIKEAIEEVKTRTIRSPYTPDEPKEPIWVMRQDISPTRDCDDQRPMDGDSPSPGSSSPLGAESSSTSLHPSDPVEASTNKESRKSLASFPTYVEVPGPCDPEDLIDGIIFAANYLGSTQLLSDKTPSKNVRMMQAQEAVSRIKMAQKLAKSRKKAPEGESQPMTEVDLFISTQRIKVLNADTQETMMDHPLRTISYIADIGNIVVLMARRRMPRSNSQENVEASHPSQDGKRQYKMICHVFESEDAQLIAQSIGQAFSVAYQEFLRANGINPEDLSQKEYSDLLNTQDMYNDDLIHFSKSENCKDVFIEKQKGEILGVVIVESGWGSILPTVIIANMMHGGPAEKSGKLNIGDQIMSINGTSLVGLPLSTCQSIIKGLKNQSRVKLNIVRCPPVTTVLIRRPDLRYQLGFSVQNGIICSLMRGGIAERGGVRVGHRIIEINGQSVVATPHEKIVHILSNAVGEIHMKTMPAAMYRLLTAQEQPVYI

[2] = target: DNA dC->dU-editing enzyme APOBEC-3G (Homo sapiens, UniProt Q9HC16); test: Dose Response confirmation of small molecule APOBEC3G DNA Deaminase Inhibitors via a fluorescence-based single-stranded DNA deaminase assay. [Related pubchem assays (depositor defined):AID493012, AID493028]; format: functional
Sequence of DNA dC->dU-editing enzyme APOBEC-3G (Q9HC16 whole entry): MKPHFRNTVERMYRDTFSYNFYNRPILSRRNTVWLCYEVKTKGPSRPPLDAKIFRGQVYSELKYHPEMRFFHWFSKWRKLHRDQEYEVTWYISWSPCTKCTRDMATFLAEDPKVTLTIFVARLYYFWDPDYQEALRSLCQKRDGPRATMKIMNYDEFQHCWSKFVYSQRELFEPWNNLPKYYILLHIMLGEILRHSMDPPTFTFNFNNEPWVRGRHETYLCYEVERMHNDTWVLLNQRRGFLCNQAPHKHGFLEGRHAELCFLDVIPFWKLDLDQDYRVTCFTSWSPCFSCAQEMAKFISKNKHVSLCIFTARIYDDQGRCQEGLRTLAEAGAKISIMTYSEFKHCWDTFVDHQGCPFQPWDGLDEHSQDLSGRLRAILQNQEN

[3] = target: Eukaryotic translation initiation factor 4E (Mus musculus, UniProt P63073); test: eIF4E–eIF4G protein interaction inhibitors, dose response, biochemical, TR-FRET (AID 855); format: functional;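 further: potency for disrupting eIF4E binding to eIF4GI seen as loss of FRET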
[4] = target: T1, Voltage-gated N-type calcium channel alpha-1B subunit/Amyloid beta A4 precursor protein-binding family A member 1; format: protein assay; remark: listed apart in the source
[5] = target: Melanin-concentrating hormone receptor 1 (Homo sapiens, UniProt Q99705); test: Late-stage fluorescence-based counterscreen for antagonists of the G-protein coupled receptor 7 (GPR7): cell-based dose response assay to identify antagonists of the melanin-concentrating hormone receptor 1 (MCHR1). [Related pubchem assays (depositor defined):AID1861, AID1880, AID1952, AID2148, AID2251, AID2257, AID485339]; format: functional;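 further: stimulated with 30 nM MCH peptide agonist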
[6] = target: DNA dC->dU-editing enzyme APOBEC-3A (Homo sapiens, UniProt P31941); test: APOBEC3A DNA deaminase inhibitors, dose response, biochemical (AID 504722); format: functional
HEK293 = test: cells; details: Homo sapiens;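 further: cells exposed to compound for 14 hours overnight before viability readout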
[7] = target: T2, Nucleotide-binding oligomerization domain-containing protein 1 (Homo sapiens, UniProt Q9Y239); test: NOD1 signaling inhibitors, SAR follow-up, revised (AID 2333); format: functional
T2 sequence (Q9Y239 whole entry): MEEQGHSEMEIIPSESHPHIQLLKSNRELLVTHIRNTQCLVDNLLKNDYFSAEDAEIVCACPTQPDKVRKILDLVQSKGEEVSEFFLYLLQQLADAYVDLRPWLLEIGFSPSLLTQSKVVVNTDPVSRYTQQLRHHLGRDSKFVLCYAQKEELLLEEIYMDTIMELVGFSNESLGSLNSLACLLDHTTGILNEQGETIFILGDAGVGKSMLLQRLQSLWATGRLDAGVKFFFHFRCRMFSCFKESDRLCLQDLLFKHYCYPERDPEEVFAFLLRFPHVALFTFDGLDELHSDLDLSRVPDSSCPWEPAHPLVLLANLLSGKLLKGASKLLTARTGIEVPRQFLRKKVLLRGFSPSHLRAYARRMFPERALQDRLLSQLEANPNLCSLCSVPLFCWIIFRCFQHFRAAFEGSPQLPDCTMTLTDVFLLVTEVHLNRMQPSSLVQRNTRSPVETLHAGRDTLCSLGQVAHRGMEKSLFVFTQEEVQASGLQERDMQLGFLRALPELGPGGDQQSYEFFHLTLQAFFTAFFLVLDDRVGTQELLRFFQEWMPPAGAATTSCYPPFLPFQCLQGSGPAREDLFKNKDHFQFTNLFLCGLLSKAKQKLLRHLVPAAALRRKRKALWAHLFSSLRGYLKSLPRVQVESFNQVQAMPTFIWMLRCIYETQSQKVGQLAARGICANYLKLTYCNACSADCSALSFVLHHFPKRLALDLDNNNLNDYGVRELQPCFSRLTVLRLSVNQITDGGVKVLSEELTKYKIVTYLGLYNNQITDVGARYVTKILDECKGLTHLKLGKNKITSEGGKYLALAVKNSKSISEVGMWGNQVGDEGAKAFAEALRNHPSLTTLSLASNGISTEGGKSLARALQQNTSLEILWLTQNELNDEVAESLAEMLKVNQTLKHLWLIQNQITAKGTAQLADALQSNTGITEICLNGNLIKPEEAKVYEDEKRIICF

Tumor necrosis factor = Tumor necrosis factor (Homo sapiens, UniProt P01375); test: TNFa-triggered NF-kB activation inhibitors, SAR follow-up, cell-based, revised (AID 2337); format: functional
Sequence of Tumor necrosis factor (P01375 whole entry, the tested form may be a part): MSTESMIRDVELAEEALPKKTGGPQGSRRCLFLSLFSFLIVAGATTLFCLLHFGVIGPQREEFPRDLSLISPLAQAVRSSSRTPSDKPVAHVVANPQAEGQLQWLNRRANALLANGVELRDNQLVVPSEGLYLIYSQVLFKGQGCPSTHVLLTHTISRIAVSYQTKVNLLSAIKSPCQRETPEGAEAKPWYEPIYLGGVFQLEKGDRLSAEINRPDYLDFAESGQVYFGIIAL

[8] = target: Nucleotide-binding oligomerization domain-containing protein 2 (Homo sapiens, UniProt Q9HC29); test: PubChem AID 2334; format: functional
Sequence of Nucleotide-binding oligomerization domain-containing protein 2 (Q9HC29 whole entry, the tested form may be a part): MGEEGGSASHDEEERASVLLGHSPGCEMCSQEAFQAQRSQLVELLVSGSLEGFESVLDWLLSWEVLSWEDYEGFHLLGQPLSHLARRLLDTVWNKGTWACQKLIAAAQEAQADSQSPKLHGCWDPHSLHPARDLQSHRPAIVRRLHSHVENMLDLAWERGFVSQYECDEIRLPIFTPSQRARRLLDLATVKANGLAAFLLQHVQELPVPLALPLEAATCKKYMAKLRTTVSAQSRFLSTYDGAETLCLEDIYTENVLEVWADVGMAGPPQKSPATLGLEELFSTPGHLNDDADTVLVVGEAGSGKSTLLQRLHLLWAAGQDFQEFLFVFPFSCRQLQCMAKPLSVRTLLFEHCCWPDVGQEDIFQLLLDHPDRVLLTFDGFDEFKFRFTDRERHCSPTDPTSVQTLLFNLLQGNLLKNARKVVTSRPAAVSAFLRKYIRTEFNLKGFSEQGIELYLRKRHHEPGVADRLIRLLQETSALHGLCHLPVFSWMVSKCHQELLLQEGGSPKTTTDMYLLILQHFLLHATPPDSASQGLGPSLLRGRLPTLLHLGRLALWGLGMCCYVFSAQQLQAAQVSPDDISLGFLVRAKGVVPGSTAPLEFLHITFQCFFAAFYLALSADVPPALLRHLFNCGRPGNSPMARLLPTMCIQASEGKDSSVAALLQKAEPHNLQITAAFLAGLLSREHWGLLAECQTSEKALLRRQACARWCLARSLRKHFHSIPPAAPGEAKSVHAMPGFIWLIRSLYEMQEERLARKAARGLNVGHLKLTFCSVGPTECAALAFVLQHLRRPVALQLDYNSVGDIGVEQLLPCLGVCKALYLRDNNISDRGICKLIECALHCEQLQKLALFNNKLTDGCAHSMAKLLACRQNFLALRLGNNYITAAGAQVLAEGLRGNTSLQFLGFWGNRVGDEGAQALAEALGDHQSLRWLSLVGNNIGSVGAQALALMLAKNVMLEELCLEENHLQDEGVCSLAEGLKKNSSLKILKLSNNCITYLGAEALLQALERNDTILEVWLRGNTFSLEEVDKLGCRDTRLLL

[9] = target: G-protein coupled receptor 55 (Homo sapiens, UniProt Q9Y2T6); test: GPR55 agonists via beta-arrestin recruitment, primary screen, imaging, U2OS cells, beta-arrestin-GFP redistribution (AID 1961); format: functional
Paired box protein Pax-8 = Paired box protein Pax-8 (Homo sapiens, UniProt Q06710); test: inhibitors of PAX8-driven TPO luciferase reporter, dose response, RMG-I cells, cherry-pick (AID 687027); format: functional, cell-based;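 further: luciferase reporter driven by Pax8 target thyroperoxidase promoter measured by SteadyGlo luminescence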
Bcl-2-like protein 10 = Bcl-2-like protein 10 (Homo sapiens, UniProt Q9HD36); test: displacers of TR3 peptide from Bcl-B, primary screen, selectivity assay for Bfl-1 inhibitor project, biochemical, fluorescence polarization, FITC-TR3 peptide (AID 748);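 further: fluorescence polarization from a fluorescein-labelled TR3 peptide binding purified Bcl-B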
Sequence of Bcl-2-like protein 10 (Q9HD36 whole entry): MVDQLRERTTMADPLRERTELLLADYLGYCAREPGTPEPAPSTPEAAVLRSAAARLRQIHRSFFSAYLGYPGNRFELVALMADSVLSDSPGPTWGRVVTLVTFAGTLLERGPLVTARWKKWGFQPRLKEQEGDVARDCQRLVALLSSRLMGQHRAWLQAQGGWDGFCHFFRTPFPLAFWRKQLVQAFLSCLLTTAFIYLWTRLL

Coagulation factor XII = Coagulation factor XII (Homo sapiens, UniProt P00748); format: functional;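 further: activated factor XIIa alpha cleaving a fluorogenic AMC peptide substrate; inhibitor potency from loss of enzyme activity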

SMILES: COCc1c(N)c(C)nc(Cl)c1C#N
IC50 [1]: 13.9 µM (active)
IC50 [2]: 13.3 µM (active)
IC50 [3]: 50 µM (inactive)
IC50 [4]: > 50 µM (inactive)

SMILES: COc1ccc(Oc2c(CO)cnn(-c3ccc(C(C)C)cc3)c2=O)cc1
IC50 [5]: 7.4 µM (active)

SMILES: Sc1nnc(-c2ccco2)n1-c1ccc(Br)cc1
IC50 [6]: > 100 µM (inactive)
IC50 [2]: 1.5 µM (active)

SMILES: CC(C)C(=O)Nc1nc2ccccc2n1Cc1ccc(Cl)cc1
IC50 (HEK293): > 20 µM (inactive)
IC50 [7]: 16.7 µM (active)
IC50 (Tumor necrosis factor): > 20 µM (inactive)
IC50 [8]: > 20 µM (inactive)

SMILES: CCCN(CCC)Cc1c(C(=O)N/N=C/C(C)=C\c2ccco2)nnn1-c1nonc1N
EC50 [9]: 0.625 µM (active)
AC50 (Paired box protein Pax-8): 2.86 µM (active)

The next lines start with the values.

IC50 (Bcl-2-like protein 10): > 100 µM (inactive)
SMILES: Cc1ccc(N2CN=c3s/c(=C\c4cccnc4)c(=O)n3C2)cc1

IC50 (Coagulation factor XII): > 50 µM (inactive)
SMILES: COc1ccc(OC)c(/C=N/Nc2cc(C)nc(N3CCOCC3)n2)c1

IC50 (Bcl-2-like protein 10): > 100 µM (inactive)
SMILES: c1nnnn1C12CC3CC(CC(C3)C1)C2
